The text below walks through data of paper PMC6271477, “Effects of Single Amino Acid Substitution on the Biophysical Properties and Biological Activities of an Amphipathic α-Helical Antibacterial Peptide Against Gram-Negative Bacteria” (Molecules, 2014).

Data set [1] is described as follows: Tryptophan fluorescence, binding to lipid vesicles. Particulars: for Tryptophan fluorescence emission maximum: excitation 280 nm. The method, then: Upon peptide diffusion into the cytoplasmic membrane, evidence of selective interaction between peptides with bacterial versus mammalian cytoplasmic membrane was illustrated by the binding events of the peptides to anionic or zwitterionic lipid vesicles. […] Lipid/peptide (L/P) ratios were maintained high enough at low peptide concentration (2 μM) in order to mimic the initial steps of peptide-membrane binding. The spectra were recorded as shown in Supplementary Figure S1. […] The significant blue shifts of Δλmax (17 to 23 nm) for all peptides upon exposure to PC/PG vesicles indicated a membrane partition state of Trp in negatively charged vesicles containing 30% anionic lipids (PG).
Unilamellar vesicles were prepared by a standard procedure with either PC/PG (7:3, w/w) or PC/cholesterol (8:1, w/w) as described previously. Briefly, the desired mixtures of lipids were dissolved in a chloroform/methanol mixture (2:1, v/v), dried under nitrogen and then lyophilized for 24 h to remove traces of organic solvent. Dry lipid films were suspended in 10 mM HEPES buffer containing 150 mM NaCl (pH 7.4) by vortex mixing. After five freeze-thawing cycles, the suspension was extruded 15 times through double polycarbonate membranes with 0.1 μm diameter pores on an Avanti mini-extruder apparatus. The lipid concentration was determined by phosphorus analysis as previously reported.
(§1) Fluorescence emission spectra of peptide Trp residues were monitored by a Shimadzu RF-5301 spectrofluorometer. The excitation of wavelength was set as 280 nm and the emission spectra of each peptide, with or without lipid vesicles, were recorded between 300 and 450 nm. Thus three curves were recorded for each peptide, in HEPES buffer or with either PC/PG vesicles or PC/cholesterol vesicles. The blue shift of Trp residues in vesicles were referred to in buffer condition. The final concentrations of peptide and lipid were 2 μM and 100 μM (1/50), respectively.

A short description of data set [2]: Tryptophan fluorescence in HEPES buffer. In kind it is physicochemical. The following applies: peptide 2 μM, excitation 280 nm.
Text: Upon peptide diffusion into the cytoplasmic membrane, evidence of selective interaction between peptides with bacterial versus mammalian cytoplasmic membrane was illustrated by the binding events of the peptides to anionic or zwitterionic lipid vesicles. The repositioning of the tryptophan indole group in an environment of reduced polarity upon membrane binding results in a blue shift in the fluorescence […] maximum coupled with an enhancement of emission intensity. Lipid/peptide (L/P) ratios were maintained high enough at low peptide concentration (2 μM) in order to mimic the initial steps of peptide-membrane binding. The spectra were recorded as shown in Supplementary Figure S1. […] The significant blue shifts of Δλmax (17 to 23 nm) for all peptides upon exposure to PC/PG vesicles indicated a membrane partition state of Trp in negatively charged vesicles containing 30% anionic lipids (PG).
as §1

The test system of another data set is E. coli DH5α. The data set is described as follows: MIC by broth dilution. It is filed as cell-based. The following applies: MH broth, 5 × 10^5 CFU/mL, 24 h at 37 °C. The method, then:
(§2) Minimal inhibitory concentrations (MIC) were determined using a broth dilution method. Briefly, bacteria were grown overnight at 37 °C in Mueller–Hinton (MH) Broth, diluted in the same medium and transferred into 96-well microtiter plates (90 μL/well). Peptides were serially diluted using 0.2% bovine serum albumin containing 0.01% acetic acid and added to the microtiter plates in a volume of 10 μL per well to give a final concentration of 5 × 10^5 CFU/mL. MICs were defined as the lowest peptide concentration that inhibited bacterial growth after incubation for 24 h at 37 °C.
(In general: Broth dilution looks for growth in wells or tubes with falling amounts of substance.)

The subject of another data set is P. aeruginosa H188. In kind it is cell-based. The method, then:
as §2

The test system of another data set is E. coli ATCC25922. In kind it is cell-based. The method, then:
as §2

The next data set relates to E. coli Clinical Isolate. In kind it is cell-based. The method, then:
as §2

The subject of another data set is P. aeruginosa ATCC27853. It is filed as cell-based. The method, then:
as §2

A short description of data set [3]: Analytical RP-HPLC retention time as a measure of peptide hydrophobicity. It is filed as physicochemical. Particulars: RP-HPLC at 25 °C, Zorbax 300 SB-C8 column, linear AB gradient, A 0.1% aqueous TFA, B 0.1% TFA in acetonitrile, 1 mL/min, detection at 210 nm. As for the experimental part: Among substitutions, the retention times ranged from 32.2 min (peptide V16K) to 40.4 min (peptide V16L), which reflect the pure effects of single amino acid substitutions. Thus, the retention times of peptides reflect the relative hydrophobicity of side chains. Consistent with previous studies, the hydrophobicity of peptide analogs was generally in the following order: Lys < Gly < Ser < Ala < Val < Leu. Glu-substituted peptide was an exception, as it contains a negatively-charged side chain and this should decrease the hydrophobicity of the peptide dramatically.
Peptides were analyzed on a Shimadzu LC-20A HPLC using a Zorbax 300 SB-C8 column (150 ° 4.6 mm i.d., 5 μm particle size, 300 Å pore size) from Agilent Technologies using a linear AB gradient and a flow rate of 1 mL/min, where solvents A and B were as described above. Absorbance signals of peptides were detected at 210 nm.

The mark [4] stands for this setting: PC/PG (7:3, w/w) vesicles versus HEPES buffer, lipid:peptide 50:1, peptide 2 μM.
Where [5] appears, read: PC/PG (7:3, w/w) vesicles, lipid and peptide in a molar ratio of 50:1, peptide 2 μM, lipid 100 μM.
The mark [6] stands for this setting: PC/cholesterol (8:1, w/w) vesicles versus HEPES buffer, peptide 2 μM, lipid 100 μM.
Setting [7] is: PC/cholesterol (8:1, w/w) vesicles, peptide 2 μM, lipid 100 μM.

In brackets after ≈: the same amount, converted by molar mass. Read-outs that look alike come from different tables or passages of the source.

Take `CC[C@H](C)[C@H](NC(=O)[C@H](C)NC(=O)[C@H](CCCCN)NC(=O)[C@H](CC(C)C)NC(=O)[C@H](C)NC(=O)[C@@H](NC(=O)[C@H](Cc1cnc[nH]1)NC(=O)[C@H](CC(C)C)NC(=O)[C@@H](NC(=O)[C@@H](NC(=O)[C@H](CCCCN)NC(=O)[C@H](CCCCN)NC(=O)[C@H](C)NC(=O)[C@H](CO)NC(=O)[C@H](CCCCN)NC(=O)[C@H](Cc1ccccc1)NC(=O)[C@@H](NC(=O)[C@H](CCCCN)NC(=O)[C@H](CC(C)C)NC(=O)[C@H](Cc1ccccc1)NC(=O)[C@H](CO)NC(=O)[C@H](CCCCN)NC(=O)[C@H](Cc1c[nH]c2ccccc12)NC(=O)[C@H](CCCCN)NC(C)=O)[C@@H](C)O)[C@@H](C)O)C(C)C)[C@@H](C)O)C(=O)N[C@@H](CO)C(=O)N[C@@H](CO)C(N)=O` [P]: the “Blue shift in emission maximum” value is listed as 22 nm in data set [1] (setting [4]) and 1 nm in data set [1] (setting [6]). Further, the figures for the “Tryptophan fluorescence emission maximum” value in data set [1] (setting [5]), in data set [1] (setting [7]) and in data set [2] were 328 nm, 349 nm and 350 nm, respectively. Further, the MIC (as a rule, the least concentration at which growth counts as inhibited) in the data set with E. coli DH5α turned out to be 2 µg/mL (≈ 0.669 µM); in the data set with P. aeruginosa H188 (P. aeruginosa H188, MH broth, 5 × 10^5 CFU/mL, 24 h at 37 °C), 4 µg/mL (≈ 1.34 µM); against E. coli ATCC25922 (E. coli ATCC25922, MH broth, 5 × 10^5 CFU/mL, 24 h at 37 °C) it was 1 µg/mL (≈ 0.334 µM); in the data set on E. coli Clinical Isolate (E. coli Clinical Isolate, MH broth, 5 × 10^5 CFU/mL, 24 h at 37 °C) it was 1 µg/mL (≈ 0.334 µM); in the data set on P. aeruginosa ATCC27853 (P. aeruginosa ATCC27853, MH broth, 5 × 10^5 CFU/mL, 24 h at 37 °C), 4 µg/mL (≈ 1.34 µM). For the same compound, the “tR, retention time during RP-HPLC (relative hydrophobicity)” value in data set [3] was 38.2 min.

Regarding “Ac-KWKSFLKTFKSAKKTKLHTALKAISS-NH2 [Peptide V16K]”, the results for the “Blue shift in emission maximum” value in data set [1] (setting [4]) and in data set [1] (setting [6]) were 21 nm and 1 nm, respectively. The figures for the “Tryptophan fluorescence emission maximum” value in data set [1] (setting [5]), in data set [1] (setting [7]) and in data set [2] were 329 nm, 349 nm and 350 nm, respectively. For the same compound, the MIC against E. coli DH5α worked out at 16 µg/mL; against P. aeruginosa H188 (H188, 24 h), 16 µg/mL; with E. coli ATCC25922 (ATCC25922, 24 h) it was 32 µg/mL; with E. coli Clinical Isolate (Clinical Isolate, 24 h) it was 8 µg/mL; with P. aeruginosa ATCC27853 (ATCC27853, 24 h), 32 µg/mL. The “tR, retention time during RP-HPLC (relative hydrophobicity)” value in data set [3] worked out at 32.2 min.
